Results from patent publication US9750742B2, “Small molecular inhibitors of RAD51 recombinase and methods thereof” (Drexel University, priority 2011, dated 2017).

Legend:
RAD51 = molecular target: T1, RAD51 (Homo sapiens, UniProt Q06609); assay: D-loop assay for RAD51; format: biochemical; details: for inhibitory effect on D-loop formation by RAD51, in words: B02 derivatives 50 μM; for IC50: RAD51 1 μM, ssDNA 3 μM, dsDNA 50 μM, compound added after filament formation
T1 construct: made in house
T1 sequence (Q06609 1-339): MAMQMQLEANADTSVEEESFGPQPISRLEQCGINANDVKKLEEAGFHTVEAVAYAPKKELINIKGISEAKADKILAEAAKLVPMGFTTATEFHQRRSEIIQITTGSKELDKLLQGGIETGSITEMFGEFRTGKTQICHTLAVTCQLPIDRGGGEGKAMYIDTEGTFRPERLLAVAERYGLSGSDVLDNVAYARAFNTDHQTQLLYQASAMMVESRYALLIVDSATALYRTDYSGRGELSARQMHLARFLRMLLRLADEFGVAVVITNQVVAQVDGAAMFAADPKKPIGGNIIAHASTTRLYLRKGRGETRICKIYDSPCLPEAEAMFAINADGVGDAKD
Method: When indicated, chemical compounds in question were added in specified concentrations and incubation was continued for 30 min at 37° C. D-loop formation was initiated by addition of supercoiled pUC19 dsDNA (50 μM, nt) and continued for 15 min. Reactions were stopped by addition of SDS to 1% (w/v) and proteinase K to 880 μg ml^−1 followed by incubation for 15 min at 37° C. […] The yield of joint molecules was expressed as a percentage of the total plasmid DNA.
The reaction was deproteinized and analyzed as described above.
(§1) IC50 values were calculated using GraphPad Prism V5.0 software and the sigmoidal dose-response function. The data were obtained from three independent repeats of experiments.

RecA = molecular target: T2, RecA (Escherichia coli, UniProt P0A7G6); assay: biochemical; set-up: species or system E. coli; details: for IC50: IC50 (RecA), RecA 1 μM, ssDNA 3 μM, dsDNA 50 μM; for inhibition of RecA DNA strand exchange, in words: up to 100 μM
T2 construct: purchased USB Inc. (Cleveland, Ohio)
Method: (Mazin et al., 2000, EMBO J. 19:1148-56). When indicated, chemical compounds in specified concentrations were added and incubation was continued for 30 min at 37° C. D-loop formation was initiated by addition of supercoiled pUC19 dsDNA (50 μM, nt) and carried out for 3 min at 37° C. The DNA products were deproteinized and analyzed as described above for the Rad51-promoted reaction.
as §1

MEF cells = assay: Clonogenic survival assay, MEF; format: cell-based, mouse; details: AZD2281 1 μM versus MMS only
Method: Briefly, MEF cells were trypsinized and the appropriate number of cells was replated on 10 cm tissue culture dishes. […] Cells were fixed and stained using staining solution (0.05% crystal violet, 50% methanol in PBS); colonies were counted using an AlphaImager 3400 (Alpha Innotech Inc.). The percent of survival was determined as described (Hall & Giccia, 2005, “Radiobiology for the Radiologist”, 6th Ed., Philadelphia, Pa.: Lippincott Williams & Wilkins, pp. 30-45). The percent of survival obtained from untreated cells was normalized to 100% survival.

T2 sequence (P0A7G6 whole entry): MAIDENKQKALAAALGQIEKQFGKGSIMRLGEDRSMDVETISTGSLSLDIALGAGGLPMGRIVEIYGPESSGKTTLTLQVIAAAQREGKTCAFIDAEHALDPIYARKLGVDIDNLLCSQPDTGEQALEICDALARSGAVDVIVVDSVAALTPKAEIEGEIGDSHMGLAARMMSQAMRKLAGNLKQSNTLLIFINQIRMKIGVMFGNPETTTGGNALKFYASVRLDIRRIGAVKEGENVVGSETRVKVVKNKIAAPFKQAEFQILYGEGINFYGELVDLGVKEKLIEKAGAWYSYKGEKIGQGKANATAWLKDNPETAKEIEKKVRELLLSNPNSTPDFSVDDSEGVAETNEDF

Structure (SMILES)	inhibitory effect on D-loop formation by RAD51, in words (RAD51)	IC50 (RAD51) [µM]	IC50 (RecA) [µM]	inhibition of RecA DNA strand exchange, in words (RecA)	sensitivity to MMS (MEF cells)
Cn1c(C=Cc2cccnc2)nc2ccccc2c1=O [Compound C3e]	eliminates the inhibition				
CCn1c(/C=C/c2cccnc2)nc2ccccc2c1=O [Compound C3a, (E)-3-ethyl-2-(2-(pyridin-3-yl)vinyl)quinazolin-4(3H)-one]	retain the inhibitory effect	15.3	> 100	do not inhibit	
Cc1ccc(-n2c(C=Cc3cccnc3)nc3ccccc3c2=O)cc1 [Compound C3c]	eliminates the inhibition				
O=C(c1cc(Cc2n[nH]c(=O)c3ccccc23)ccc1F)N1CCN(C(=O)C2CC2)CC1 [AZD2281, 4-[(3-[(4-cyclopropylcarbonyl)piperazin-4-yl]carbonyl)-4-fluorophenyl]methyl(2H)phthalazin-1-one, reference compound]					more sensitive
O=c1c2ccccc2nc(C=Cc2cccnc2)n1-c1ccccc1 [Compound C3d]	eliminates the inhibition				
Cc1cccc(-n2c(/C=C/c3cccnc3)nc3ccccc3c2=O)c1 [Compound C3b, (E)-2-(2-(pyridin-3-yl)vinyl)-3-(m-tolyl)quinazolin-4(3H)-one]	retain the inhibitory effect	27.3	> 100	do not inhibit	
